Molecules are shown by their SMILES.

Experiment [1] has as its system gastric emptying. The experiment is described as follows: Gastric emptying-suppressive action (phenol red test meal). Particulars: 500 mg/kg oral, test meal 1 hour later, stomach isolated after 90 minutes, vs vehicle, p<0.05, FIG. 1. Format: in vivo, Sprague Dawley rats. The protocol:
Male Sprague Dawley rats (12 weeks of age, Charles River Laboratories Japan Inc.) (n=5) were used. After fasting for 20 hours, distilled water for injection (5 mL/kg) was orally administered to a vehicle group and 4-hydroxyisoleucine (500 mg/5 mL/kg) was orally administered to a 4-hydroxyisoleucine administration group. One hour later, a test meal (1.5% methylcellulose, 0.05% phenol red, 1.5 ml) was orally administered. After 90 minutes, the stomach was isolated under an ether anesthesia, the gastric contents were recovered and the remaining phenol red was quantified. A control group was prepared. After fasting for 20 hours, a test meal (1.5% methylcellulose, 0.05% phenol red, 1.5 mL) was orally administered. Immediately after administration of the test meal, the stomach was isolated under an ether anesthesia, the gastric contents were recovered and the remaining phenol red was quantified. The gastric emptying was calculated by the following formula.
Gastric emptying (%)=(1-phenol red amount of each individual/average phenol red amount of control group*)×100*:test meal alone was administered, n=2
The difference between the 4-hydroxyisoleucine (HIL) administration group and the distilled water for injection (vehicle) administration group was detected according to Student's t test, and p<0.05 was judged as significant.

For experiment [2], the system named is body weight gain. Particulars: high-fat diet-fed mouse; cited from earlier work.
For experiment [3] the following is noted: in vivo; cited from earlier work.
For experiment [4], the system named is food intake. The experiment in a line: Food intake suppressive action (cumulative feed intake). Particulars: 500 mg/kg oral after fasting for 9 hours, vs vehicle, p<0.05, FIG. 2. The class given is in vivo, Wistar rats. The protocol: Male Wistar rats (7 weeks of age, Charles River Laboratories Japan Inc.) (n=5) were used. After fasting for 9 hours, distilled water for injection (5 mL/kg) or 4-hydroxyisoleucine (50, 150, 500 mg/5 mL/kg) was orally administered at 18:00. Immediately thereafter, feeding was started. The cumulative feed intake was measured at 30 min, 1 hr, 3 hr and 16 hr after the administration. […] The difference between the 4-hydroxyisoleucine administration group and the distilled water for injection (vehicle) administration group was detected according to Student's t test, and p<0.05 was judged as significant.

Experiment [5] relates to insulin secretion. Particulars: in vitro; cited from earlier work.

On to `C[C@@H]([C@H](C)O)[C@H](N)C(=O)O` [4-hydroxyisoleucine], for which the “Gastric emptying (%)” value in experiment [1] is on record as “significantly suppressed”. In addition, in experiment [2], the “suppression of body weight gain” value was “does not show such action”. Further, the antidiabetic action result in experiment [3] is reported as “an antidiabetic action”. In addition, the “food intake (cumulative feed intake)” value in experiment [4] is recorded as “significantly suppressed”. Further, the insulin secretagogue action entry in experiment [5] is listed as “shows an insulin secretagogue action”.

Values taken from US20090247636A1, “AGENT FOR SUPPRESSION OF GASTRIC EMPTYING COMPRISING 4-HYDROXYISOLEUCINE” (AJINOMOTO CO., INC.,, priority 2006, published 2009).
